# Laboratory results from US20160279166A1, “TREATING AGENT AND TREATING METHOD FOR THE EXAMINATION OR OPERATION OF THE LARGE INTESTINE” (KYOWA CHEMICAL INDUSTRY CO., LTD., priority 2013, published 2016).
# Assays:
# [1] = system: rats; assay: Laparotomy of rats after 9 hours: remaining feces, dry feces and water content in the large intestinal tract; type: in vivo, rat
# Experimental: (§1) Magnesium oxide particles and water-soluble dietary fibers were administered to rats for animal testing to check the defecation states after 9 hours. Laparotomy was made on the rats after 9 hours to measure the amount of remaining feces, the amount of dry feces and the content of water in the intestinal tract.
# (§2) A preparation containing 1.4 g of magnesium oxide particles and 9 g of water-soluble dietary fiber powders was used to administer 700 mg/kg of the magnesium oxide particles and 4,500 mg/kg of the water-soluble dietary fiber powders to rats. The magnesium oxide in use was magnesium oxide particles having an average secondary particle diameter specified in the present invention. The water-soluble dietary fibers in use were reduced indigestible dextrin specified in the present invention.
# The total suspension liquid doses to test groups were fixed. When the magnesium oxide particles and a mixture of the magnesium oxide particles and the water-soluble dietary fiber powders were administered, 5 ml/kg of them was administered, and when they were not administered, 0.05% CMC-NA was administered. When the water-soluble dietary fiber liquid was administered, 10 ml/kg of it was administered and when the water-soluble dietary fiber liquid was not administered, 10 ml/kg of water was administered. The defecation state was checked after 9 hours, and the amount of remaining feces, the amount of dry feces and the content of water in the large intestine of each rat were measured to evaluate the effects on the properties of feces of the magnesium oxide particles and the water-soluble dietary fibers.
# [2] = system: large intestine; assay: CT examination of the large intestine: evaluation of remaining feces, remaining water and overall evaluation after pretreatment; type: in vivo, human; settings: conclusion from CT overall evaluation
# Experimental: The large intestine is divided into 6 parts in order to evaluate remaining feces and remaining water in each part in five stages from an image of the large intestine at a supine position (SU) and a lateral recumbent position (PR) obtained from CT examination. Further, overall evaluation was carried out from the obtained evaluation results.
# The large intestine is divided into the following six parts.
# C: appendix A: ascending colon T: transverse colon D: descending colon S: sigmoid colon R: rectum
# The remaining feces were evaluated in five stages according to the existence of movement and a shape change.
# 0: difficult to evaluate 1: sticks to a mucous membrane 2: no movement and no shape change 3: moved and changed in shape 4: almost no remaining feces
# The remaining water was evaluated in the following five stages according to its proportion to the circumference.
# 0: 4/4 of the circumference is under water (complete submersion). 1: 3/4 of the circumference is under water 2: 2/4 of the circumference is under water 3: 1/4 of the circumference is under water (submersion of semilunar pleat) 4: almost no submersion
# The overall evaluation was made in the following five stages.
# 0: not useful 1: it cannot be said whether it is useful or not 2: rather useful 3: useful 4: very useful
# 3 g of MgO for each examination was divided in two portions to be administered as the pretreatment of the examination. […]
# [3] = system: rats; assay: Defecation state (soft stool) of rats 9 hours after administration; type: in vivo, rat; settings: oral, after 9 hours, magnesium oxide 700 mg/kg, fiber powders 4500 mg/kg, fiber liquid 4500 mg/kg as administered
# Experimental: as §1, §2
# The total suspension liquid doses to test groups were fixed. […] The defecation state was checked after 9 hours, and the amount of remaining feces, the amount of dry feces and the content of water in the large intestine of each rat were measured to evaluate the effects on the properties of feces of the magnesium oxide particles and the water-soluble dietary fibers.
# [4] = system: rats; assay: Defecation state (diarrhea) of rats after 9 hours with varied amount of ingested water; type: in vivo, rat; settings: oral, magnesium oxide 700 mg/kg
# Experimental: Magnesium oxide particles were administered to rats for animal testing to check the defecation states after 9 hours. At this point, the amount of water to be taken was increased and decreased to evaluate the effect on laxative action of the amount of water to be taken.
# A preparation containing magnesium oxide as an effective component and crystalline cellulose, croscarmellose and calcium stearate as additives was used. […] The magnesium oxide in use is magnesium oxide particles having an average secondary particle diameter specified in the present invention.
# The defecation state of each test group was checked after 9 hours so as to calculate the water-like feces excretion rate and evaluate the effect on the properties of feces of the amount of ingested water when the magnesium oxide particles were administered.
# [5] = large intestinal tract after 9 hours, magnesium oxide 700 mg/kg, fiber powders 4500 mg/kg, fiber liquid 4500 mg/kg as administered
smiles,measurement,setting,value
"[O]=[Mg] [Magnesium oxide particles, magnesium oxide]",amount of dry feces (in words),[1]; after 9 hours,reduced
same,content of water (in words),[1]; after 9 hours,increased
same,Amount of dry feces,[1]; [5],12%
same,Amount of remaining feces,[1]; [5],3.69 g
same,Content of water,[1]; [5],88%
same,effectiveness as a treating agent for the examination or operation of the large intestine (in words),[2],extremely effective
same,Proportion having soft stool (number of rats having soft stool/number of test rats),[3],3/5
same,Proportion causing diarrhea (number of rats suffering from diarrhea/number of test rats),[4]; water 1 mL/kg,3/5
same,Proportion causing diarrhea (number of rats suffering from diarrhea/number of test rats),[4]; water 10 mL/kg,4/5
same,Proportion causing diarrhea (number of rats suffering from diarrhea/number of test rats),[4]; water 35 mL/kg,5/5
